For orientation: IC50 means the point on the concentration scale where inhibition reaches its midpoint. In general, viability, T/C refers to the ratio of treated to control.

SMILES strings stand for the structures. Where “and” joins values, the source holds several entries; their conditions need not be identical. Equal entries are not always repeated. Bounds are passed on as bounds.

The assay relates to 349418-098-R tumor spheroid viability. As to the kind of experiment: Anticancer human tumor 349418-098-R patient-derived lung adenocarcinoma cell line growth inhibition. The following applies: spheroids with HUVEC and MSC; for viability, T/C: stronger effect = lower value. The gist of the method: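 Single agents and combinations were tested on spheroids built from tumor cells plus HUVEC and hMSC, at half-log dilutions starting at or near clinical Cmax, else 10 microM; final DMSO 0.25% (v/v).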
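Further: spheroids exposed to compound for 7 days before measurement.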
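Wherever viability, T/C is given: percent of vehicle control viability with 100% = DMSO-treated spheroids.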

Turning to `Cn1ncnc1[C@H]1c2n[nH]c(=O)c3cc(F)cc(c23)N[C@@H]1c1ccc(F)cc1` + Cn1nnc2c(C(N)=O)ncn2c1=O, the IC50 reads like this: (curve of first compound, second compound 1 µM) 1580 nM; (curve of first compound, second compound 3.16 µM) 1470 nM; (curve of first compound, second compound 10 µM) 1100 nM; (curve of first compound, second compound 31.6 µM) 131 nM; (curve of first compound, second compound 100 µM) < 9.49 nM. For the same compound, the viability, T/C (second compound 1 µM, first compound 0.00949 µM) is 99%; the viability, T/C (second compound 1 µM, first compound 0.03 µM) is 99.2%; the viability, T/C (second compound 1 µM, first compound 0.0949 µM) is 94.3%; the viability, T/C (second compound 1 µM, first compound 0.3 µM) is 99.9%; the viability, T/C (second compound 1 µM, first compound 0.949 µM) was 82.9%; the viability, T/C (second compound 1 µM, first compound 3 µM) was 8.45%. The viability, T/C was 100% (second compound 3.16 µM, first compound 0.00949 µM); 99.9% (second compound 3.16 µM, first compound 0.03 µM); 97.5% (second compound 3.16 µM, first compound 0.0949 µM); 95.4% (second compound 3.16 µM, first compound 0.3 µM); 77.1% (second compound 3.16 µM, first compound 0.949 µM); 6.31% (second compound 3.16 µM, first compound 3 µM). Further, the viability, T/C is 104% (second compound 10 µM, first compound 0.00949 µM); 98% (second compound 10 µM, first compound 0.03 µM); 95.1% (second compound 10 µM, first compound 0.0949 µM); 94% (second compound 10 µM, first compound 0.3 µM); 56.2% (second compound 10 µM, first compound 0.949 µM); 6.77% (second compound 10 µM, first compound 3 µM). The viability, T/C by setting is: (second compound 31.6 µM, first compound 0.00949 µM) 97.7%; (second compound 31.6 µM, first compound 0.03 µM) 77.7%; (second compound 31.6 µM, first compound 0.0949 µM) 56.5%; (second compound 31.6 µM, first compound 0.3 µM) 35.6%; (second compound 31.6 µM, first compound 0.949 µM) 12.3%; (second compound 31.6 µM, first compound 3 µM) 3.26%. Further, the viability, T/C (second compound 100 µM, first compound 0.00949 µM) was 16.3%; the viability, T/C (second compound 100 µM, first compound 0.03 µM) is 12.1%; the viability, T/C (second compound 100 µM, first compound 0.0949 µM) is 9.69%; the viability, T/C (second compound 100 µM, first compound 0.3 µM) is 7.58%; the viability, T/C (second compound 100 µM, first compound 0.949 µM) was 6.59%; the viability, T/C (second compound 100 µM, first compound 3 µM) was 1.86%.

Regarding `CNCc1ccc(-c2cc(-c3nc(-c4ccc(S(=O)(=O)C(C)C)cc4)cnc3N)on2)cc1`, the viability, T/C (compound 0.00949 µM) is 99.8% and 99.6% and 96.2%; the viability, T/C (compound 0.03 µM) was 104% and 99.5% and 92.1%; the viability, T/C (compound 0.0949 µM) is 94.8% and 98.9% and 94.1%; the viability, T/C (compound 0.3 µM) is 71.1% and 34.7% and 85.6%; the viability, T/C (compound 0.949 µM) was 8.67% and 9.93% and 16.6%; the viability, T/C (compound 3 µM) is 2.53% and 1.43% and 6.14%. For the same compound, for the setting “curve of compound”, the IC50 was 442 nM and 228 nM and 544 nM.

These data come from PubChem BioAssay AID1845197 (Molecular Pharmacology Branch, DTP, NCI, 2023).
